The values that follow come from patent publication US10100331B2, “Reagent for gene-drug therapeutics” (Agency for Science, Technology and Research, priority 2012, dated 2018).

One assay has as its system Neuro2A cells. The assay is described as follows: Transfection of Neuro2A cells with PKC inhibitor. Type of assay: cell-based. The settings on record: 2 μM, 45 min prior and after transfection; LPEI/pDNA N/P=20; 24 h. As to the method:
Neuro2A cells were treated with GÖ6983 (2 μM) for 45 min prior transfection. Transfection mixture (LPEI/pDNA at N/P=20) was replaced with DMEM containing 0.5% FBS and GÖ6983 (2 μM). Representative images (acquired 24 h post transfection) were shown.

In a further assay the test system is KLF4 and c-Myc. The assay is described as follows: KLF4 and c-Myc expression in HaF (PCR). Type of assay: cell-based, human. The settings on record: 1 mM VPA, up to 72 h. As to the method: Fibroblast cells were treated with 1 mM VPA for up to 3 days. At the end of incubation, the cells were collected and subjected to PCR analysis. Cells with no exposure to VPA (3 days) serve as control. Graphs present fold change to control after normalization with GAPDH.

A further assay addresses HDAC1 (Homo sapiens, UniProt Q13547). To be noted: Targeted HDAC/Sirtuin: 1; cited from earlier work.
In a further assay the target is T1, HDAC6 (Homo sapiens, UniProt Q9UBN7).
T1 sequence (Q9UBN7 1-1215): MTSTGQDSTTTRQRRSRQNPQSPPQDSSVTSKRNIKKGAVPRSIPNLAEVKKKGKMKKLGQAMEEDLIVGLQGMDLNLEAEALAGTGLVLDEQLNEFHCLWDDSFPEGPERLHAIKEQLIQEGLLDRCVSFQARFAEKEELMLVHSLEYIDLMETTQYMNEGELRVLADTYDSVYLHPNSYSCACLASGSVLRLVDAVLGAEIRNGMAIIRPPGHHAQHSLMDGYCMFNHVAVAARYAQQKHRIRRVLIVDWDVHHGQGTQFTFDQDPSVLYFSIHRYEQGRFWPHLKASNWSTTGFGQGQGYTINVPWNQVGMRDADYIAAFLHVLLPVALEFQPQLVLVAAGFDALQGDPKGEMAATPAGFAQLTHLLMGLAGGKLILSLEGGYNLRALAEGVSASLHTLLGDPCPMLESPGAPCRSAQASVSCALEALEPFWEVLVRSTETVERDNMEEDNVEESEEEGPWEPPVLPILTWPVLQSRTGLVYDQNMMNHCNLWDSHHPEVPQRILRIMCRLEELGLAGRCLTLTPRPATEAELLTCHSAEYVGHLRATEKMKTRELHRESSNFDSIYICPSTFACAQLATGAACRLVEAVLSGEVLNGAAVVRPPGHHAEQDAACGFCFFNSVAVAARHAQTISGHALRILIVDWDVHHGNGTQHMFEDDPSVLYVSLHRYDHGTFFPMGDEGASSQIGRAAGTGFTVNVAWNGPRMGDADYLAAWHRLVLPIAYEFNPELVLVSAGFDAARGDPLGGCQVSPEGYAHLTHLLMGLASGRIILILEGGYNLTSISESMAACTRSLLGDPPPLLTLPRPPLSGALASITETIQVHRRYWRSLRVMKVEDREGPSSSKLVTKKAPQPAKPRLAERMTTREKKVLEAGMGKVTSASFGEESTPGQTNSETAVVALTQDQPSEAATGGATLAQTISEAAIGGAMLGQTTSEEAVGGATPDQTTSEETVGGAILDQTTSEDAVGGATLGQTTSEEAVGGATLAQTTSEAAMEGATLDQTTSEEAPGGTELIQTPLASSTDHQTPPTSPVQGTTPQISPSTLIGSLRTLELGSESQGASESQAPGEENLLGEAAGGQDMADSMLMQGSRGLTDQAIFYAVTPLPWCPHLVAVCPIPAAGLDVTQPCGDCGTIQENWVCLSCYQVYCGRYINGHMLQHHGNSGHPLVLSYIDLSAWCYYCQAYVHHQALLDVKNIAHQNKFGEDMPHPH
To be noted: Targeted HDAC/Sirtuin: 6; cited from earlier work.

Another assay concerns the target HDAC2 (Homo sapiens, UniProt Q92769). The settings on record: Targeted HDAC/Sirtuin: 2; cited from earlier work.
The next assay has as its target HDAC3 (Homo sapiens, UniProt O15379). To be noted: Targeted HDAC/Sirtuin: 3; cited from earlier work.
A further assay concerns the target T2, HDAC8 (Homo sapiens, UniProt Q9BY41).
T2 sequence (Q9BY41 1-377): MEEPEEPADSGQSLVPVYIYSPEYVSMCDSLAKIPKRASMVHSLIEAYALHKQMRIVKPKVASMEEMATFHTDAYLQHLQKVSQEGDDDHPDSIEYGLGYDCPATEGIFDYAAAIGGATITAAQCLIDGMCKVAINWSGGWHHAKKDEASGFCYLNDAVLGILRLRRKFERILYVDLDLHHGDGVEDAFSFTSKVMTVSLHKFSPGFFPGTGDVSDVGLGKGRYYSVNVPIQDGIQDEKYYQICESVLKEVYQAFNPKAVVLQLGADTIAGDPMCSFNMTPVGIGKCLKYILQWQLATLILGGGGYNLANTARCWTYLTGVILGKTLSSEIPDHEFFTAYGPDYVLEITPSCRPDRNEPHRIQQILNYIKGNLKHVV
The settings on record: Targeted HDAC/Sirtuin: 8; cited from earlier work.

pIC50: −log10 of the molar value.

HDAC1, sequence (Q13547 whole entry, species assumed): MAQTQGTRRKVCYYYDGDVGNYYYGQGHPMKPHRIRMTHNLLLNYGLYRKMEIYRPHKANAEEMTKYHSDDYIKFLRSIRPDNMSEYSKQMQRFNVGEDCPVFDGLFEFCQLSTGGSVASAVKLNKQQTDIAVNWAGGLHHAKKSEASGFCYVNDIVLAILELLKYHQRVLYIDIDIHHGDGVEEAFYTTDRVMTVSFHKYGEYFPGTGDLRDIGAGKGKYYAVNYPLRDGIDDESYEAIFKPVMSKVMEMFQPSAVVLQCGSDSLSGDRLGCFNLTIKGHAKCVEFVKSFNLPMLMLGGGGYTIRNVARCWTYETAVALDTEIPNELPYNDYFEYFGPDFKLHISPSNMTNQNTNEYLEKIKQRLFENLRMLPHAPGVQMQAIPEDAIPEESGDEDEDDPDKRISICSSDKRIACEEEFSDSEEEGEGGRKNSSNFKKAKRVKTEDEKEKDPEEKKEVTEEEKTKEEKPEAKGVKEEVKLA
HDAC3, sequence (O15379 whole entry): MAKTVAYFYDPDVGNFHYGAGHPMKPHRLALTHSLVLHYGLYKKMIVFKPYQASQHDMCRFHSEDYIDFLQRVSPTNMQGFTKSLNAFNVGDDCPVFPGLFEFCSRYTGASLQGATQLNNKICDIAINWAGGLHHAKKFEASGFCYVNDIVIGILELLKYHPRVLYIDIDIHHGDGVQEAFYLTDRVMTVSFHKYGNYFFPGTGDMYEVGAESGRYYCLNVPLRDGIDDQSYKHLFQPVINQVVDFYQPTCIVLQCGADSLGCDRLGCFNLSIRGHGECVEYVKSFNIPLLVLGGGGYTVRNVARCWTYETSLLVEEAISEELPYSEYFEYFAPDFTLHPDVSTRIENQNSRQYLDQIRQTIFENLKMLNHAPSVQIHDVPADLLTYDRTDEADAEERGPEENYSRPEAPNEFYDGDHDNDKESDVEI
HDAC3, sequence (Q9Y618 395-489 partner limits assumed): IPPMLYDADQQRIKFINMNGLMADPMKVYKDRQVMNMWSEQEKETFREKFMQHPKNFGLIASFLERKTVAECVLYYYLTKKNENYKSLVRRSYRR
HDAC2, sequence (Q92769 whole entry): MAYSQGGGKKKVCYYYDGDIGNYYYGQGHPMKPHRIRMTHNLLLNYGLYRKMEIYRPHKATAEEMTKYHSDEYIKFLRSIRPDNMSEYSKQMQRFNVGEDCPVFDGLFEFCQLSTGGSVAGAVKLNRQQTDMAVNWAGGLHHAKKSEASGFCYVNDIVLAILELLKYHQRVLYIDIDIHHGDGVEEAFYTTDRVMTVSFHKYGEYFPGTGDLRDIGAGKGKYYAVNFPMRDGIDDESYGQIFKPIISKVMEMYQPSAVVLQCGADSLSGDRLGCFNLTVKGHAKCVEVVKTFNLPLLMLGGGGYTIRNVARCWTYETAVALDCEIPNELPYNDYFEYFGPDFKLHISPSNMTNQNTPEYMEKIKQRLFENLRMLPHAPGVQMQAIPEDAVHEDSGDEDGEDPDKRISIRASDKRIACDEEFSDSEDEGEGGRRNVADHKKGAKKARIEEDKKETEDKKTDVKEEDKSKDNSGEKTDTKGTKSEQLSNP

With `COc1ccc2c(c1)c(C1=C(c3c[nH]c4ccccc34)C(=O)NC1=O)cn2CCCN(C)C` [GÖ6983], in the assay with Neuro2A cells, the transfection result is on record as “substantially reduced transfection”.

What is called pIC50 is −log10 of the IC50, conventionally taken in molar units. Turning to `CCCC(CCC)C(=O)O` [Valproic Acid], the “expressions of cMyc and KLF4” value with KLF4 and c-Myc is recorded as “Gradual increment”. Besides, the figures for the negative logarithm of the IC50 (pIC50) at HDAC1 and at HDAC6 were 3.35 and 1.93, respectively.

Regarding `Nc1ccccc1NC(=O)CCCCCCC(=O)Nc1ccccc1` [BML-210], the results for the pIC50 at HDAC1, on HDAC2 and on HDAC3 were 4.82, 4.96 and 5.58, respectively.

`CCCCOc1ccc(CC(=O)NO)cc1` [Bufexamac]: the results for the pIC50 at HDAC3, on HDAC6 and on HDAC8 were 3.47, 4.97 and 3.63, respectively.
